This note sets out measurements from patent US20230364194A1, “GLP-1R/GCGR Dual Target Agonist Polypeptide Derivative for Treatment of Hepatic Fibrosis Associated with Viral Hepatitis” (Shenzhen Turier Biotech. Co., Ltd., priority 2020, published 2023).

In experiment [1] the test system is Hepatic stellate cell strain LX-2. The experiment can be described thus: In vitro effect on expression of LX-2 cell activation marker α-SMA (Western Blot, β-actin reference). Format: cell-based. The note with it: LX-2 cells, 10.0 uM, 48 hours, negative control = 100%. The source says: Hepatic stellate cell strain LX-2 (from China Center for Type Culture Collection, Shanghai) was selected to study and observe the effects of polypeptide compounds 1-25 on the expression level of LX-2 cell activation marker α-smooth muscle actin (α-SMA). The control group was given the same volume of Dulbecco’s modified Eagle medium (DMEM) (from Gibco, United States), and β-actin (from TransGen Biotech) as the endogenous reference, wherein, α-SMA is a symbolic feature that distinguishes […] from myofibroblasts.
Hepatic stellate cell LX-2 was laid on 35 mm cell culture plate, cultured with DMEM (high glucose)+10% FBS+1% double-antibody culture medium (Thermo Fisher), placed overnight when the cells grew to 70% convergence at 37° C. under the condition of 5% CO2 without serum, and treated with the above GLP-1R/GCGR dual target agonist polypeptide derivatives (namely, polypeptide compounds 1-25) (dissolved in PBS) for 48 hours from the next morning to extract cell protein, and then Western Blot was performed with β-actin as endogenous reference to analyze the expression levels of α-SMA and β-actin by gray-scale analysis using Image J 1.50i. PBS with the same volume as that in experimental group was added in negative control.
The above polypeptide compounds 1-25 with a concentration of 10.0 µM were added, showing that they could reduce the expression of α-SMA at the concentration of 10.0 µM; and the negative control had no effect on the expression of α-SMA (referring to Table 2).
The integrated gray scale of α-SMA/β-actin in the negative control group was considered to be 100% to analyze the in vitro inhibitory activity on hepatic fibrosis by tested polypeptides.
Background: Immunoblotting shows a protein as a band on a membrane.

Experiment [2] has as its system HBV-infected humanized mouse liver. The experiment can be described thus: Hepatic fibrosis of HBV-infected humanized mouse (hepatitis virus-infected humanized mouse fibrosis model). Format: in vivo. Particulars: 40 ug/Kg, intraperitoneal injection, once every other day for 3 weeks; for Accumulation of collagen fibers (FG/SR staining of liver) / Hepatic fibrosis and inflammation level (FG/SR and H&E staining of liver): compared with control group without administration; for Serum ALT: versus before administration. The protocol: In order to study the effect of the polypeptide compounds of the present invention in hepatic fibrosis associated with viral hepatitis, the polypeptide compounds of the present invention were used for hepatic fibrosis of HBV-infected humanized mouse. […] The specific steps are shown as follows:
Forty newborn NOD-scid IL-2Rγ-/- (NIKO) mice were bred.
These mice were injected with human stem cells for humanization (2 weeks).
Referring to FIG. 10, blood samples were taken to determine the humanization level by flow cytometry. All the mice used in the experiment expressed humanization according to in vivo concentrations of CD4 and CD8.
The mice were divided into 8 groups, fed with high-fat diet and infected with HBV (1 week).
The development of fibrosis in mice was monitored (8-10 weeks).
The polypeptide compounds 2, 5, 11, 15, 20, 23 and 25 were selected, which were stored at -20° C.
The above 40 mice were divided into 8 groups for injection treatment, with grouping and injection administration as follows: blank model control group (CTR), physiological saline, intraperitoneal injection, n=5. • 1) Administration group, polypeptide compound 2, 40 ug/Kg, intraperitoneal injection, n=5. • 2) Administration group, polypeptide compound 5, 40 ug/Kg, intraperitoneal injection, n=5. • 3) Administration group, polypeptide compound 11, 40 ug/Kg, intraperitoneal injection, n=5. • 4) Administration group, polypeptide compound 15, 40 ug/Kg, intraperitoneal injection, n=5. • 5) Administration group, polypeptide compound 20, 40 ug/Kg, intraperitoneal injection, n=5. • 6) Administration group, polypeptide compound 23, 40 ug/Kg, intraperitoneal injection, n=5. • 7) Administration group, polypeptide compound 25, 40 ug/Kg, intraperitoneal injection, n=5.
They were injected once every other day for 3 weeks.
After 3 weeks of administration, the mice were sacrificed to take samples for subsequent bioassay experiments. The serum samples from the mice were used for ALT and human IFNγ tests. Paraffin sections were prepared from partial liver tissues of the mice and stained with hematoxylin-eosin (H&E), […]/Sirius red (FG/SR) and immunohistochemical fluorescence (α-SMA), and statistics were made with Image-pro plus, Graph pad and similar software.
In the HBV induced hepatic fibrosis model, its characteristics are: inflammatory cell infiltration around the central vein area, hydropic degeneration of hepatocytes, and increased accumulation of collagen fibers in the portal area and the hepatic interlobular septum. After 3 weeks of administration, the mice were sacrificed to take samples. Blood was taken from the retrobulbar vein for detection of serological indicators, and liver tissues were taken for pathological analysis.

Starred links: 1 amine or outer side, 2 acyl side, 3 side chain; linkers in the order of their positions; H or OH if unused. Non-standard residues stand in square brackets, D forms with d. Groups on a side chain read outwards from the residue. Primed or numbered codes have the meaning given here. No end group written: not given here. *: point of attachment. C18 diacid = O=C(O)CCCCCCCCCCCCCCCCC(=O)*; C16 diacid = O=C(O)CCCCCCCCCCCCCCC(=O)*; γGlu = O=C(O)[C@H](CCC(=O)[*:2])N[*:1]; Stearoyl = CCCCCCCCCCCCCCCCCC(=O)*; Palmitoyl = CCCCCCCCCCCCCCCC(=O)*; PEG2′ = not defined here; Aib = CC(C)(N)C(=O)O

Regarding “His-(D-Ser)-Gln-Gly-Thr-Phe-Thr-Ser-Asp-Tyr-Ser-Lys-Tyr-Leu-Asp-Glu-Lys-Ala-Ala-Lys(PEG2-PEG2-yGlu- CO(CH2)16CH3)-Glu-Phe-Ile-Glu-Trp-Leu-Leu-Arg-Gly-Gly- Gly-Pro-Ser-Ser-Gly-Ala-Pro-Pro-Pro-Ser-NH2 (H[dS]QGTFTSDYSKYLDEKAAK([PEG2′-PEG2′-γGlu-Stearoyl])EFIEWLLRGGGPSSGAPPPS-NH2) [Compound 11]”, the “Relative expression of α-SMA (α-SMA/β-actin, %)” value in experiment [1] is listed as 35.78%. Further, in experiment [2], the “α-SMA expression in liver tissues (IF staining)” value (“α-SMA expression” below) is reported as “significantly inhibited”; the “Accumulation of collagen fibers (FG/SR staining of liver)” value (from here on “Accumulation of collagen fibers”) is given as “significantly inhibited the accumulation of collagen fibers”; the “Hepatic fibrosis and inflammation level (FG/SR and H&E staining of liver)” value (“Hepatic fibrosis and inflammation level” below) was “decreased the hepatic fibrosis and inflammation level”; the “Serum ALT” value is listed as “decreased from that before administration”.

Turning to “His-(D-Ser)-Gln-Gly-Thr-Phe-Thr-Ser-Asp-Tyr-Ser-Lys-Tyr-Leu-Asp-Glu-Lys-Ala-Ala-Lys(PEG2-PEG2-γGlu- CO(CH2)14CH3)-Glu-Phe-Ile-Glu-Trp-Leu-Leu-Asn-Gly-Gly- Gly-Pro-Ser-Ser-Gly-Ala-Pro-Pro-Pro-Ser-NH2 (H[dS]QGTFTSDYSKYLDEKAAK([PEG2′-PEG2′-γGlu-Palmitoyl])EFIEWLLNGGGPSSGAPPPS-NH2) [Compound 15]”, in experiment [1], the “Relative expression of α-SMA (α-SMA/β-actin, %)” value is given as 37.25%. Moreover, in experiment [2], the “α-SMA expression” value is reported as “significantly inhibited”; the “Accumulation of collagen fibers” value was “significantly inhibited the accumulation of collagen fibers”; the “Hepatic fibrosis and inflammation level” value was “decreased the hepatic fibrosis and inflammation level”; the “Serum ALT” value is “decreased from that before administration”.

As to “His-Aib-Gln-Gly-Thr-Phe-Thr-Ser-Asp-Lys(PEG2-PEG2-yGlu- CO(CH2)16CO2H)-Ser-Lys-Tyr-Leu-Asp-Glu-Arg-Arg-Ala- Gln-Asp-Phe-Val-Gln-Trp-Leu-Leu-Asp-Gly-Gly-Gly-Pro-Ser-Ser-Gly-Ala-Pro-Pro-Pro-Ser-NH2 (H[Aib]QGTFTSDK([PEG2′-PEG2′-γGlu-C18 diacid])SKYLDERRAQDFVQWLLDGGGPSSGAPPPS-NH2) [Compound 5]”, the “Relative expression of α-SMA (α-SMA/β-actin, %)” value in experiment [1] came out at 37.04%. In experiment [2], the “α-SMA expression” value is “significantly inhibited”; the “Accumulation of collagen fibers” value is on record as “significantly inhibited the accumulation of collagen fibers”; the “Hepatic fibrosis and inflammation level” value was “decreased the hepatic fibrosis and inflammation level”; the “Serum ALT” value was “decreased from that before administration”.

“His-(D-Ser)-Gln-Gly-Thr-Phe-Thr-Ser-Asp-Tyr-Ser-Lys-Tyr-Leu-Asp-Lys(PEG2-PEG2-γGlu-CO(CH2)14CH3)-Arg-Arg-Ala- Gln-Asp-Phe-Val-Gln-Trp-Leu-Leu-Asn-Thr-Gly-Gly-Pro-Ser-Ser-Gly-Ala-Pro-Pro-Pro-Ser-NH2 (H[dS]QGTFTSDYSKYLDK([PEG2′-PEG2′-γGlu-Palmitoyl])RRAQDFVQWLLNTGGPSSGAPPPS-NH2) [Compound 23]”: the “Relative expression of α-SMA (α-SMA/β-actin, %)” value in experiment [1] is 36.15%. For the same substance, in experiment [2], the “α-SMA expression” value is recorded as “significantly inhibited”; the “Accumulation of collagen fibers” value is “significantly inhibited the accumulation of collagen fibers”; the “Hepatic fibrosis and inflammation level” value is “decreased the hepatic fibrosis and inflammation level”; the “Serum ALT” value was “decreased from that before administration”.

As for “His-(D-Ser)-Gln-Gly-Thr-Phe-Thr-Ser-Asp-Tyr-Ser-Lys-Tyr-Leu-Asp-Lys(PEG2-PEG2-CO(CH2)14CH3)-Arg-Arg-Ala-Gln- Asp-Phe-Val-Gln-Trp-Leu-Leu-Asn-Thr-Gly-Gly-Pro-Ser-Ser-Gly-Ala-Pro-Pro-Pro-Ser-NH2 (H[dS]QGTFTSDYSKYLDK([PEG2′-PEG2′-Palmitoyl])RRAQDFVQWLLNTGGPSSGAPPPS-NH2) [Compound 25]”, the “Relative expression of α-SMA (α-SMA/β-actin, %)” value in experiment [1] was determined as 39.17%. Further, in experiment [2], the “α-SMA expression” value is reported as “significantly inhibited”; the “Accumulation of collagen fibers” value is “significantly inhibited the accumulation of collagen fibers”; the “Hepatic fibrosis and inflammation level” value is “decreased the hepatic fibrosis and inflammation level”; the “Serum ALT” value was “decreased from that before administration”.

With “His-(D-Ser)-Gln-Gly-Thr-Phe-Thr-Ser-Asp-Tyr-Ser-Lys-Tyr-Leu-Asp-Lys(PEG2-PEG2-yGlu-CO(CH2)14CH3)-Arg-Arg-Ala- Gln-Asp-Phe-Val-Gln-Trp-Leu-Nle-Asn-Thr-Gly-Gly-Pro-Ser-Ser-Gly-Ala-Pro-Pro-Pro-Ser-NH2 (HXQGTFTSDYSKYLDKRRAQDFVQWLXNTGGPSSGAPPPS; D-Ser; Nle; PEG2-PEG2-γGlu-palmitoyl lipidation; C-terminal amide; (2)..(2) Xaa=D-Ser; (16)..(16) A side chain of Lys is linked to -PEG2-PEG2-AGlu-CO(CH2)14CH3; (27)..(27) Xaa=Nle) [Compound 20]”, in experiment [1], the “Relative expression of α-SMA (α-SMA/β-actin, %)” value amounted to 32.58%. In addition, in experiment [2], the “α-SMA expression” value is reported as “significantly inhibited”; the “Accumulation of collagen fibers” value is “significantly inhibited the accumulation of collagen fibers”; the “Hepatic fibrosis and inflammation level” value was “decreased the hepatic fibrosis and inflammation level”; the “Serum ALT” value is reported as “decreased from that before administration”.

For “His-(D-Ser)-Gln-Gly-Thr-Phe-Thr-Ser-Asp-Tyr-Ser-Lys-Tyr-Leu-Asp-Glu-Lys-Ala-Ala-Lys(PEG2-PEG2-γGlu-CO(CH2)14CO2H)-Glu-Phe-Ile-Glu-Trp-Leu-Leu-Asn-Gly- Gly-Gly-Pro-Ser-Ser-Gly-Ala-Pro-Pro-Pro-Ser-NH2 (H[dS]QGTFTSDYSKYLDEKAAK([PEG2′-PEG2′-γGlu-C16 diacid])EFIEWLLNGGGPSSGAPPPS-NH2) [Compound 13]”, the “Relative expression of α-SMA (α-SMA/β-actin, %)” value in experiment [1] is 40.46%.

On to “His-(D-Ser)-Gln-Gly-Thr-Phe-Thr-Ser-Asp-Tyr-Ser-Lys-Tyr-Leu-Asp-Glu-Lys(PEG2-PEG2-γGlu-CO(CH2)16CO2H)-Arg- Ala-Gln-Asp-Phe-Val-Gln-Trp-Leu-Met-Asn-Thr-Gly-Gly-Pro-Ser-Ser-Gly-Ala-Pro-Pro-Pro-Ser-NH2 (H[dS]QGTFTSDYSKYLDEK([PEG2′-PEG2′-γGlu-C18 diacid])RAQDFVQWLMNTGGPSSGAPPPS-NH2) [Compound 2]”, for which, in experiment [1], the “Relative expression of α-SMA (α-SMA/β-actin, %)” value is 34.65%. Further, in experiment [2], the “α-SMA expression” value was “significantly inhibited”; the “Accumulation of collagen fibers” value is reported as “significantly inhibited the accumulation of collagen fibers”; the “Hepatic fibrosis and inflammation level” value is “decreased the hepatic fibrosis and inflammation level”; the “Serum ALT” value is reported as “decreased from that before administration”.
